Experimental data as given in patent US12240844B2 (Voronoi, Inc., priority 2019, dated 2025).

Tests used:
Format in all cases: biochemical
[1] = target: T1, human GST-DYRK1A (full length) (Homo sapiens, UniProt Q13627); experiment: GST-DYRK1A enzyme inhibition, ADP-Glo kinase assay; details: read-out: DYRK1 IC50
T1 construct: purified human GST-DYRK1A (full length, Thermo scientifics) enzyme; GST; purchased Thermo scientifics
Procedure, shortened: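 Full-length human GST-DYRK1A (10 ng) incubated with 10 uM ATP and specific substrate for 1 h at 25° C in 40 mM Tris-HCl pH 7.4, 20 mM MgCl2, 0.5 mg/mL BSA, 50 uM DTT. ADP formation read by ADP-Glo luminescence; IC50 (nM) versus solvent control, triplicate.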

[2] = target: T2, human GST-CLK1 (129-end) (Homo sapiens, UniProt P49759); experiment: GST-CLK1 enzyme inhibition, ADP-Glo kinase assay; details: ATP 10 uM
T2 construct: purified human GST-CLK1 (129-end, Signalchem) enzyme; GST; purchased Signalchem
Procedure, shortened: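 GST-CLK1 (129-end, 3 ng) reacted with 10 uM ATP and substrate in 40 mM Tris-HCl pH 7.4, 20 mM MgCl2, 0.5 mg/mL BSA, 50 uM DTT, 1 h at 25° C. ADP-Glo luminescence normalised to solvent control; IC50 from triplicate data.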

[3] = target: LRRK2 (Homo sapiens, UniProt Q5S007); experiment: LRRK2 enzyme inhibition, ADP-Glo kinase assay; set-up: purchased Invitrogen PR8604B
Procedure: In order to evaluate the inhibitory activity of the compounds according to the present invention on LRRK2, LRRK2 (G2019S), DYRK1, CLK1 and TTK kinases, the following experiment was performed.
Example compounds were reacted with the purified human LRRK2 (Invitrogen #PR8604B) enzyme to evaluate the enzyme inhibitory ability as follows. The reaction buffer was used as the composition of 40 mM Tris-HCl pH7.4, 20 mM MgCl2, 0.5 mg/ml BSA and 50 μM DTT, and the reaction of all test materials was performed on the reaction buffer. The compound was diluted with 10 mM DMSO stock in 12 steps by a serial dilution method, and the enzyme activity was measured at the final compound concentrations of 50, 10, 2, 0.4, 0.08, 0.016, 0.0032, 0.00064, 0.000128, 0.0000256, 0.00000512 and 0.000001024 μM. In the test, the human LRRK2 (25 ng) enzyme was reacted with the purified ATP (10 μM) and an enzyme substrate ([…]) at 25° C. for 2 hours, and then the enzyme activity was identified using the in vitro ADP-Glo™ kinase assay (promega). The enzyme activity reaction liquid, an ADP-Glo reaction liquid and an enzyme potency detection solution were reacted in a ratio of 2:2:1, and the degree of inhibition of enzyme activity was measured by Luminescence. The degree of inhibition of enzyme activity according to the treatment concentrations of the respective compounds was calculated based on the fluorescence of the enzyme activity of a solvent control group that was not treated with the compound, where the concentration of each compound to inhibit enzyme activity inhibition by 50% was determined as an IC50 (nM) value and obtained using Prism (Version 5.01, GraphPad) software.
In the table below, the following designations were used for the evaluation of enzyme inhibitory ability.

Chain of LRRK2 (Q5S007 970-2527 limits assumed): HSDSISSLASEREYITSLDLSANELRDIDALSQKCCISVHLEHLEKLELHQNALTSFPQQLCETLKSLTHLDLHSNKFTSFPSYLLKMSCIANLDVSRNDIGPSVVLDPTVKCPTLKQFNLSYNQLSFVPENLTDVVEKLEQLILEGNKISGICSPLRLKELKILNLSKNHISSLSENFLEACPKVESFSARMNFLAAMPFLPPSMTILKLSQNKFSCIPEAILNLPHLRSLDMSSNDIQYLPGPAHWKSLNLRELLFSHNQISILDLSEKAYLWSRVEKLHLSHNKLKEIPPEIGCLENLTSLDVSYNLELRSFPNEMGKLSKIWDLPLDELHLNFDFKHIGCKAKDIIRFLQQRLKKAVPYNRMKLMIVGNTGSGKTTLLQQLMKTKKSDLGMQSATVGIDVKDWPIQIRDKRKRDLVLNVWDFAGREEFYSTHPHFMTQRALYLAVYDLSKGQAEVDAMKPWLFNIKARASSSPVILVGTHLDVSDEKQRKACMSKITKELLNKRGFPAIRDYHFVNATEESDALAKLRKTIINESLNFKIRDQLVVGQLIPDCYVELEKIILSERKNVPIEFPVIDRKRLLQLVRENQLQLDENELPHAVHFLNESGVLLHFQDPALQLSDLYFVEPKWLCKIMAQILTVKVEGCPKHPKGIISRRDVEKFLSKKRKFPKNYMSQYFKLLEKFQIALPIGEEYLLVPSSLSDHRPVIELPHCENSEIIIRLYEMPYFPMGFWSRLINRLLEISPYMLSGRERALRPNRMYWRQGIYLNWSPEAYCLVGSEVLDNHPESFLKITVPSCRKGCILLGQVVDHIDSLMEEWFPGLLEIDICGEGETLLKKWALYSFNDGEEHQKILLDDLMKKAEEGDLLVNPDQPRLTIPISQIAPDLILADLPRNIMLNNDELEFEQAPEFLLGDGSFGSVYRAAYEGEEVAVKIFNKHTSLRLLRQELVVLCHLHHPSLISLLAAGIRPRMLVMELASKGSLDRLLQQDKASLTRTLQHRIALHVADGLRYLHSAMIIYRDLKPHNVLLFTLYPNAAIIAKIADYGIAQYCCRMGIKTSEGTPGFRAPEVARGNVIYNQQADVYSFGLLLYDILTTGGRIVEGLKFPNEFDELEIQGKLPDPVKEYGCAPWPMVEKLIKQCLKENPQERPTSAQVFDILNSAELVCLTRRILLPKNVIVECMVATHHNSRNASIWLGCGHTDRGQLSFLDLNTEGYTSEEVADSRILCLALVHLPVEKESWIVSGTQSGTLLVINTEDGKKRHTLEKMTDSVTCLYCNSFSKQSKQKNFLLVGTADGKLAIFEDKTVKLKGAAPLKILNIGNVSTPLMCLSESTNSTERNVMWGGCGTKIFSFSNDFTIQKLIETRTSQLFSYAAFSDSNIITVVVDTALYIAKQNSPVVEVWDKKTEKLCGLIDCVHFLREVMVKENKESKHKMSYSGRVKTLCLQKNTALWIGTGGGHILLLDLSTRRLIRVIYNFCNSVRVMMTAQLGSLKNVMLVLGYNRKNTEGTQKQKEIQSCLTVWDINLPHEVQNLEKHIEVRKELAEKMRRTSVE
T2 sequence (P49759 129-484 limits assumed): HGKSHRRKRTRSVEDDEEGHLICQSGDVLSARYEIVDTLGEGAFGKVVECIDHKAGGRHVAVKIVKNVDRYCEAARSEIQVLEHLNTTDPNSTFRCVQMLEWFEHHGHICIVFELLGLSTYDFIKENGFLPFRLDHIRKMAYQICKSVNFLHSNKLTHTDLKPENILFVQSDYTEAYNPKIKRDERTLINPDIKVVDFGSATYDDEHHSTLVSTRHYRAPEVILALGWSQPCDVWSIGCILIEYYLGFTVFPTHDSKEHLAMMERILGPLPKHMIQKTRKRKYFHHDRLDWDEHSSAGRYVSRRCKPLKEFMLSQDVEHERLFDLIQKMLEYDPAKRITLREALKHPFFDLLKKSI

COc1cc(P2(=O)CCN(C3CC3)CC2)ccc1Nc1cc(C2CC2)c2c(C(F)(F)F)c[nH]c2n1 [Example 218, 1-cyclopropyl-4-(4-((4-cyclopropyl-3-(trifluoromethyl)-1H-pyrrolo[2,3-b]pyridin-6-yl)amino)-3-methoxyphenyl)-1,4-azaphosphinane 4-oxide]
IC50 [1]: 301 to 1000 nM | IC50 [2]: 301 to 1000 nM | IC50 [3]: < 100 nM

CNc1cc(Nc2ccc(S(C)(=N)=O)cc2OC)nc2[nH]cc(C(F)(F)F)c12 (stereo not drawn) [Example 103, N^6-(2-methoxy-4-(s-methylsulfonylimidoyl)phenyl)-N^4-methyl-3-(trifluoromethyl)-1H-pyrrolo[2,3-b]pyridine-4,6-diamine]
IC50 [1]: 301 to 1000 nM | IC50 [2]: 301 to 1000 nM | IC50 [3]: 101 to 300 nM

CNc1cc(Nc2ccc(P3(=O)CCN(C4COC4)CC3)cc2OC)nc2[nH]cc(C#N)c12 [Example 142, 6-((2-methoxy-4-(1-(oxetan-3-yl)-4-oxido-1,4-azaphosphinan-4-yl)phenyl)amino)-4-(methylamino)-1H-pyrrolo[2,3-b]pyridine-3-carbonitrile]
IC50 [1]: 101 to 300 nM | IC50 [2]: 301 to 1000 nM | IC50 [3]: < 100 nM

CN(C)CCNc1cc(Nc2ccc(C(=O)N3CCOCC3)c3c2OCCO3)nc2[nH]cc(C(F)(F)F)c12 [Example 171, (8-((4-((2-(dimethylamino)ethyl)amino)-3-(trifluoromethyl)-1H-pyrrolo[2,3-b]pyridin-6-yl)amino)-2,3-dihydrobenzo [b] [1,4]dioxin-5-yl)(morpholino) methanone]
IC50 [1]: 301 to 1000 nM | IC50 [2]: 301 to 1000 nM | IC50 [3]: < 100 nM

COCCNc1cc(Nc2ccc(P3(=O)CCN(C4COC4)CC3)cc2OC)nc2[nH]cc(C#N)c12 [Example 144, 6-((2-methoxy-4-(1-(oxetan-3-yl)-4-oxido-1,4-azaphosphinan-4-yl)phenyl)amino)-4-((2-methoxyethyl)amino)-1H-pyrrolo[2,3-b]pyridine-3-carbonitrile]
IC50 [1]: 301 to 1000 nM | IC50 [2]: 101 to 300 nM | IC50 [3]: < 100 nM

CCN(C)c1cc(Nc2ccc(C(=O)N3CCC(N4CCOCC4)CC3)c3c2OCCO3)nc2[nH]cc(C(F)(F)F)c12 [Example 51, (8-((4-(ethyl(methyl)amino)-3-(trifluoromethyl)-1H-pyrrolo[2,3-b]pyridin-6-yl)amino)-2,3-dihydrobenzo [b] [1,4]dioxin-5-yl)(4-morpholinopiperidin-1-yl)methanone]
IC50 [1]: 301 to 1000 nM | IC50 [2]: 101 to 300 nM | IC50 [3]: 101 to 300 nM

CNc1cc(Nc2ccc(C(=O)N3C[C@@H]4C[C@H]3CO4)c3c2OCCO3)nc2[nH]cc(C(F)(F)F)c12 [Example 43, ((1S,4S)-2-oxa-5-azabicyclo[2.2.1]heptan-5-yl)(8-((4-(methylamino)-3-(trifluoromethyl)-1H-pyrrolo[2,3-b]pyridin-6-yl)amino)-2,3-dihydrobenzo[b] [1,4]dioxin-5-yl)methanone]
IC50 [1]: < 100 nM | IC50 [2]: < 100 nM | IC50 [3]: < 100 nM

CCOc1cc(Nc2ccc(C(=O)N3CCOCC3)c3c2OCCO3)nc2[nH]cc(C(F)(F)F)c12 [Example 231, (8-((4-ethoxy-3-(trifluoromethyl)-1H-pyrrolo[2,3-b]pyridin-6-yl)amino)-2,3-dihydrobenzo[b] [1,4]dioxin-5-yl)(morpholino) methanone]
IC50 [1]: 301 to 1000 nM | IC50 [2]: 301 to 1000 nM | IC50 [3]: < 100 nM

COc1cc(P2(=O)CCN(C3CC3)CC2)ccc1Nc1cc(NC2CC2)c2c(C(F)(F)F)c[nH]c2n1 [Example 211, 1-cyclopropyl-4-(4-((4-(cyclopropylamino)-3-(trifluoromethyl)-1H-pyrrolo[2,3-b]pyridin-6-yl)amino)-3-methoxyphenyl)-1,4-azaphosphinane 4-oxide]
IC50 [1]: 301 to 1000 nM | IC50 [2]: 301 to 1000 nM | IC50 [3]: < 100 nM

CCNc1cc(Nc2ccc(P3(=O)CCN(CC)CC3)cc2OC)nc2[nH]cc(C(F)(F)F)c12 [Example 210, 1-ethyl-4-(4-((4-(ethylamino)-3-(trifluoromethyl)-1H-pyrrolo[2,3-b]pyridin-6-yl)amino)-3-methoxyphenyl)-1,4-azaphosphinane 4-oxide]
IC50 [1]: < 100 nM | IC50 [2]: < 100 nM | IC50 [3]: < 100 nM

COc1cc(S(C)(=O)=O)ccc1Nc1cc(NC2CCC2)c2c(C(F)(F)F)c[nH]c2n1 [Example 204, N^4-cyclobutyl-N^6-(2-methoxy-4-(methylsulfonyl)phenyl)-3-(trifluoromethyl)-1H-pyrrolo[2,3-b]pyridine-4,6-diamine]
IC50 [1]: 301 to 1000 nM | IC50 [2]: 301 to 1000 nM | IC50 [3]: 301 to 1000 nM

COC[C@@H](C)Nc1cc(Nc2ccc(C(=O)N3CCOCC3)c3c2OCCO3)nc2[nH]cc(C(F)(F)F)c12 [Example 159, (R)-(8-((4-((1-methoxypropan-2-yl)amino)-3-(trifluoromethyl)-1H-pyrrolo[2,3-b]pyridin-6-yl)amino)-2,3-dihydrobenzo [b] [1,4]dioxin-5-yl)(morpholino) methanone]
IC50 [1]: 101 to 300 nM | IC50 [2]: < 100 nM | IC50 [3]: < 100 nM

COc1cc(P2(=O)CCN(C3CC3)CC2)ccc1Nc1cc(NC2CCC2)c2c(C(F)(F)F)c[nH]c2n1 [Example 46, 4-(4-((4-(cyclobutylamino)-3-(trifluoromethyl)-1H-pyrrolo[2,3-b]pyridin-6-yl)amino)-3-methoxyphenyl)-1-cyclopropyl-1,4-azaphosphinane 4-oxide]
IC50 [1]: 301 to 1000 nM | IC50 [2]: 301 to 1000 nM | IC50 [3]: 301 to 1000 nM

CN(C)CCNc1cc(Nc2ccc(C(=O)N3CCC(N4CCOCC4)CC3)c3c2OCCO3)nc2[nH]cc(C(F)(F)F)c12 [Example 172, (8-((4-((2-(dimethylamino)ethyl)amino)-3-(trifluoromethyl)-1H-pyrrolo[2,3-b]pyridin-6-yl)amino)-2,3-dihydrobenzo[b] [1,4]dioxin-5-yl)(4-morpholinopiperidin-1-yl)methanone]
IC50 [1]: 301 to 1000 nM | IC50 [2]: 101 to 300 nM | IC50 [3]: < 100 nM

CN(C)c1cc(Nc2ccc(C(=O)N3CCC(N4CCOCC4)CC3)c3c2OCCO3)nc2[nH]cc(C(F)(F)F)c12 [Example 50, (8-((4-(dimethylamino)-3-(trifluoromethyl)-1H-pyrrolo[2,3-b]pyridin-6-yl)amino)-2,3-dihydrobenzo[b] [1,4]dioxin-5-yl)(4-morpholinopiperidin-1-yl)methanone]
IC50 [1]: 301 to 1000 nM | IC50 [2]: < 100 nM | IC50 [3]: < 100 nM

CCNc1cc(Nc2ccc(P3(=O)CCN(C(C)=O)CC3)cc2OC)nc2[nH]cc(C#N)c12 [Example 145, 6-((4-(1-acetyl-4-oxido-1,4-azaphosphinan-4-yl)-2-methoxyphenyl)amino)-4-(ethylamino)-1H-pyrrolo[2,3-b]pyridine-3-carbonitrile]
IC50 [1]: 101 to 300 nM | IC50 [2]: 301 to 1000 nM | IC50 [3]: < 100 nM

CCNc1cc(Nc2ccc(P3(=O)CCN(C4COC4)CC3)cc2OC)nc2[nH]cc(C#N)c12 [Example 143, 4-(ethylamino)-6-((2-methoxy-4-(1-(oxetan-3-yl)-4-oxido-1,4-azaphosphinan-4-yl)phenyl)amino)-1H-pyrrolo[2,3-b]pyridine-3-carbonitrile]
IC50 [1]: 301 to 1000 nM | IC50 [2]: 101 to 300 nM | IC50 [3]: < 100 nM

CCCNc1cc(Nc2ccc(C(=O)N3CCOCC3)c3c2OCCO3)nc2[nH]cc(C(F)(F)F)c12 [Example 174, morpholino(8-((4-(propylamino)-3-(trifluoromethyl)-1H-pyrrolo[2,3-b]pyridin-6-yl)amino)-2,3-dihydrobenzo[b] [1,4]dioxin-5-yl)methanone]
IC50 [1]: 301 to 1000 nM | IC50 [2]: 301 to 1000 nM | IC50 [3]: 101 to 300 nM

CCNc1cc(Nc2ccc(P3(=O)CCN(C4CC4)CC3)cc2OC)nc2[nH]cc(C#N)c12 [Example 147, 6-((4-(1-cyclopropyl-4-oxido-1,4-azaphosphinan-4-yl)-2-methoxyphenyl)amino)-4-(ethylamino)-1H-pyrrolo[2,3-b]pyridine-3-carbonitrile]
IC50 [1]: < 100 nM | IC50 [2]: 301 to 1000 nM | IC50 [3]: < 100 nM

CCCNc1cc(Nc2ccc(P3(=O)CCN(C4CC4)CC3)cc2OC)nc2[nH]cc(C(F)(F)F)c12 [Example 45, 1-cyclopropyl-4-(3-methoxy-4-((4-(propylamino)-3-(trifluoromethyl)-1H-pyrrolo[2,3-b]pyridin-6-yl)amino)phenyl)-1,4-azaphosphinane 4-oxide]
IC50 [1]: 101 to 300 nM | IC50 [2]: 301 to 1000 nM | IC50 [3]: 101 to 300 nM
